What all share (assay): CXCR6 receptor antagonists, dose response, cell-based, beta-arrestin, DiscoveRx, APJ panel, uHTS hits (AID 624129)
Experiment [1] has as its target C-C chemokine receptor type 6 (Homo sapiens) (UniProt P51684). As to conditions: CXCR6 beta-arrestin (DiscoveRx) antagonist cell assay.
The target of experiment [2] is Apelin receptor (Homo sapiens) (UniProt P35414). As to conditions: CXCR6 beta-arrestin (DiscoveRx) antagonist cell assay, APJ.
In experiment [3] the target is Beta-galactosidase (Escherichia coli) (UniProt Q8VNN2). The note with it: CXCR6 beta-arrestin (DiscoveRx) antagonist cell assay, b-galactosidase.
Experiment [4] addresses C-X-C chemokine receptor type 6 (Homo sapiens) (UniProt O00574). The note with it: CXCR6 beta-arrestin (DiscoveRx) antagonist cell assay.
The mark [5] stands for this setting: CCR6, dose range 1, mean IC50 across replicates.
[6] abbreviates: dose range 1, mean IC50 across replicates.
Setting [7] is: CXCR6, dose range 1, mean IC50 across replicates.
Where [8] appears, read: CXCR6, run 1, dose range 2, at 80 µM (top of the series).

Calls of active or inactive are those of the source. The rule behind the calls is not given here.

C-X-C chemokine receptor type 6 (Homo sapiens), sequence (O00574 whole entry, looked up): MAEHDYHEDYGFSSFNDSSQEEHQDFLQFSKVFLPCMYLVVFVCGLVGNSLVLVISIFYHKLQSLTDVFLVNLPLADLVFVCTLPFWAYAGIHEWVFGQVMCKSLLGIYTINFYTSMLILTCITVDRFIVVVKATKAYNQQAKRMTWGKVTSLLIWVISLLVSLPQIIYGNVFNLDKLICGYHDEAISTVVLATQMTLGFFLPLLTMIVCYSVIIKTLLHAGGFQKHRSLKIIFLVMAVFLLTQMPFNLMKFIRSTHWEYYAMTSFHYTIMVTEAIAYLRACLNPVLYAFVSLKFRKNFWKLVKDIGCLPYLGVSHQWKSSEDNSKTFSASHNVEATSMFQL
Beta-galactosidase (Escherichia coli), sequence (Q8VNN2 whole entry, looked up): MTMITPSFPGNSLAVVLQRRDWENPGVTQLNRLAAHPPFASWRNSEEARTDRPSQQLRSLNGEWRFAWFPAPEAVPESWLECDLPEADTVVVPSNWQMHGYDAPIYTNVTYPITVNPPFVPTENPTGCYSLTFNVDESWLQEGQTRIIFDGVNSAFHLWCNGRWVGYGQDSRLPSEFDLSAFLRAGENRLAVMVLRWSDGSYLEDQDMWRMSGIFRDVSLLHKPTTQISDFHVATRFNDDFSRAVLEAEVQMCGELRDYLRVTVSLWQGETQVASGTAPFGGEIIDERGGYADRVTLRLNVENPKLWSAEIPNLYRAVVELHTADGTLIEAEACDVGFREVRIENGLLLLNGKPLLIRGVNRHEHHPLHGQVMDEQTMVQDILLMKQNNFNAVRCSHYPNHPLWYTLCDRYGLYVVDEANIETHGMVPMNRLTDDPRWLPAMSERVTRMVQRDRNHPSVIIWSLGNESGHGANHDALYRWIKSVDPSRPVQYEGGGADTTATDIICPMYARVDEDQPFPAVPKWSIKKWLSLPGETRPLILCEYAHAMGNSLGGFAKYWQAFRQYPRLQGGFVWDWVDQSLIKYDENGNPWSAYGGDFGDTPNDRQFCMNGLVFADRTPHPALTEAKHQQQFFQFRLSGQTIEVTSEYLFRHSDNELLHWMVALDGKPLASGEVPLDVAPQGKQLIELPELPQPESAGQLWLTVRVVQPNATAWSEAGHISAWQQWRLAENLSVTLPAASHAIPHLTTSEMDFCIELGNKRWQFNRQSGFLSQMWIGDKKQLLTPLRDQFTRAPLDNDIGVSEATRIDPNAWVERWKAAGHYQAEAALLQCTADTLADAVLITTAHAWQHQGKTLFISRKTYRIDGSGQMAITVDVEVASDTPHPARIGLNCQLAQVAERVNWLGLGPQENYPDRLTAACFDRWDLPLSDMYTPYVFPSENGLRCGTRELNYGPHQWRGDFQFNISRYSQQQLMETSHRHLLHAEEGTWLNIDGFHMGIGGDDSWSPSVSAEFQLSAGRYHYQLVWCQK

Consider `C=C1C(=O)c2sccc2C(c2ccc(OC)c(OC)c2)C1COC(C)=O` (stereo unspecified), for which the IC50 is 4.58 µM in experiment [1] (CCR6, dose range 1); 5.3 µM in experiment [1] (setting [5]); 6.02 µM in experiment [1] (CCR6, run 2, dose range 1); 7.28 µM in experiment [2] (dose range 1); 6.69 µM in experiment [2] (setting [6]); 6.03 µM in experiment [2] (run 2, dose range 1). Also, the IC50 was 6.75 µM in experiment [2] (run 3, dose range 1); > 80 µM (inactive) in experiment [3] (dose range 1); > 80 µM in experiment [3] (setting [6]); 6.54 µM in experiment [4] (CXCR6, dose range 1); 6.19 µM in experiment [4] (setting [7]); 5.73 µM in experiment [4] (CXCR6, run 1, dose range 2). In addition, the IC50 in experiment [4] (CXCR6, run 2, dose range 1) was 6.78 µM; in experiment [4] (CXCR6, run 2, dose range 2), 5.7 µM.
For `O=C(CSc1nc(-c2ccco2)cc(C(F)(F)F)n1)NCCCn1ccnc1`, the 50% inhibitory concentration (IC50) in experiment [1] (CCR6, dose range 1) was 17.6 µM; in experiment [1] (setting [5]) it was 19.3 µM; in experiment [1] (CCR6, run 2, dose range 1) it was 21.1 µM; in experiment [2] (dose range 1), 20.7 µM; in experiment [2] (setting [6]), 21.4 µM; in experiment [2] (run 2, dose range 1), 22.8 µM. The IC50 in experiment [2] (run 3, dose range 1) is 20.7 µM; in experiment [3] (dose range 1), > 80 µM (inactive); in experiment [3] (setting [6]) it was > 80 µM; in experiment [4] (setting [7]) it was 16.9 µM; in experiment [4] (CXCR6, run 2, dose range 1), 18.3 µM. Moreover, the IC50 result in experiment [4] (CXCR6, dose range 1) was “inactive”. Further, the inhibition in experiment [4] (setting [8]) came out at 126%.
Regarding `O=[N+]([O-])c1cc(Cc2ccccc2)cc(C=Nc2ccc(N3CCOCC3)cc2)c1O`, the IC50 was 37.4 µM in experiment [1] (setting [5]); 37.4 µM in experiment [1] (CCR6, run 2, dose range 1); 15.7 µM in experiment [2] (dose range 1); 28.9 µM in experiment [2] (setting [6]); 33.6 µM in experiment [2] (run 2, dose range 1); 37.4 µM in experiment [2] (run 3, dose range 1). The IC50 in experiment [3] (setting [6]) was determined as 64.7 µM; in experiment [4] (setting [7]), 14.5 µM; in experiment [4] (CXCR6, run 2, dose range 1), 13.1 µM. Moreover, the IC50 result is “inactive” in experiment [3] (dose range 1) and “inactive” in experiment [4] (CXCR6, dose range 1). In addition, in experiment [4] (setting [8]), the inhibition came out at 93.2%.
Consider `COc1ccc(N2C(=O)CC(Sc3nnnn3-c3ccc(F)cc3)C2=O)cc1` (stereo unspecified), for which the IC50 was 8.24 µM in experiment [1] (CCR6, dose range 1); 9.45 µM in experiment [1] (setting [5]); 10.7 µM in experiment [1] (CCR6, run 2, dose range 1); 10 µM in experiment [2] (dose range 1); 10 µM in experiment [2] (setting [6]); > 80 µM in experiment [2] (run 2, dose range 1). Moreover, the half-maximal inhibitory concentration (IC50) was > 80 µM in experiment [2] (run 3, dose range 1); > 80 µM (inactive) in experiment [3] (dose range 1); > 80 µM in experiment [3] (setting [6]); > 80 µM (inactive) in experiment [4] (CXCR6, dose range 1); > 80 µM in experiment [4] (setting [7]); > 80 µM in experiment [4] (CXCR6, run 2, dose range 1). Moreover, the inhibition in experiment [4] (setting [8]) was -50.3%.
As for `Cc1ccc(S(=O)(=O)c2ccc([N+](=O)[O-])o2)cc1`, the half-maximal inhibitory concentration (IC50) is 8.34 µM in experiment [1] (setting [5]); 8.34 µM in experiment [1] (CCR6, run 2, dose range 1); 9.88 µM in experiment [2] (dose range 1); 10.9 µM in experiment [2] (setting [6]); > 80 µM in experiment [2] (run 2, dose range 1); 11.9 µM in experiment [2] (run 3, dose range 1). In addition, the IC50 in experiment [3] (dose range 1) was > 80 µM (inactive); in experiment [3] (setting [6]), > 80 µM; in experiment [4] (setting [7]) it was 11.8 µM; in experiment [4] (CXCR6, run 2, dose range 1), > 80 µM. Further, in experiment [4] (CXCR6, dose range 1), the IC50 entry was “inactive”. Further, in experiment [4] (CXCR6, run 1, dose range 2, at 20 µM (top of the series)), the inhibition came to 77.6%.
As for `CCCC(=O)OCCNc1cc(Sc2nc3ccccc3[nH]2)c2nonc2c1[N+](=O)[O-]`, the IC50 was 5.26 µM in experiment [1] (CCR6, dose range 1); 5.55 µM in experiment [1] (setting [5]); 5.83 µM in experiment [1] (CCR6, run 2, dose range 1); 12.4 µM in experiment [2] (dose range 1); 9.49 µM in experiment [2] (setting [6]); 5.87 µM in experiment [2] (run 2, dose range 1). In addition, the IC50 in experiment [2] (run 3, dose range 1) is 10.2 µM; in experiment [3] (setting [6]), 50.4 µM; in experiment [4] (CXCR6, dose range 1), 5.82 µM; in experiment [4] (setting [7]) it was 6.71 µM; in experiment [4] (CXCR6, run 1, dose range 2), 7.57 µM; in experiment [4] (CXCR6, run 2, dose range 1) it was 6.36 µM. This molecule also yielded an IC50 in experiment [4] (CXCR6, run 2, dose range 2) of 7.1 µM. In experiment [3] (dose range 1), the IC50 result was “inactive”.
Regarding `O=C(C#Cc1ccccc1)c1ccco1`, the IC50 in experiment [1] (CCR6, dose range 1) was 9.49 µM; in experiment [1] (setting [5]), 9.89 µM; in experiment [1] (CCR6, run 2, dose range 1), 10.3 µM; in experiment [2] (dose range 1) it was 16.1 µM; in experiment [2] (setting [6]), 14 µM; in experiment [2] (run 2, dose range 1) it was 13.1 µM. Also, the 50% inhibitory concentration (IC50) in experiment [2] (run 3, dose range 1) was 12.8 µM; in experiment [3] (dose range 1) it was > 80 µM (inactive); in experiment [3] (setting [6]) it was > 80 µM; in experiment [4] (CXCR6, dose range 1), 11.8 µM; in experiment [4] (setting [7]), 9.68 µM; in experiment [4] (CXCR6, run 1, dose range 2) it was 9.59 µM. The 50% inhibitory concentration (IC50) was 9.18 µM in experiment [4] (CXCR6, run 2, dose range 1) and 8.16 µM in experiment [4] (CXCR6, run 2, dose range 2).
In the case of `COc1ccc(NC(=O)/C(Cl)=C(/Cl)S(=O)Cc2ccccc2)cn1` (stereo unspecified), the IC50 in experiment [1] (CCR6, dose range 1) is 5.44 µM; in experiment [1] (setting [5]) it was 5.05 µM; in experiment [1] (CCR6, run 2, dose range 1) it was 4.67 µM; in experiment [2] (dose range 1), 10.7 µM; in experiment [2] (setting [6]), 22.5 µM; in experiment [2] (run 2, dose range 1), 7.69 µM. Also, the IC50 in experiment [2] (run 3, dose range 1) is 49 µM; in experiment [3] (dose range 1), > 80 µM (inactive); in experiment [3] (setting [6]), > 80 µM; in experiment [4] (CXCR6, dose range 1), 6.13 µM; in experiment [4] (setting [7]) it was 6.54 µM; in experiment [4] (CXCR6, run 1, dose range 2) it was 6.75 µM. Also, the IC50 came out at 6.11 µM in experiment [4] (CXCR6, run 2, dose range 1) and 7.15 µM in experiment [4] (CXCR6, run 2, dose range 2).

These data come from PubChem BioAssay AID624129 (Sanford-Burnham Center for Chemical Genomics, 2012).
